Laboratory results reported in publication PMC12560758, “YsxC is a placeholder for ribosomal protein uL2 during 50S ribosomal subunit assembly” (Nucleic Acids Research, 2025).

Molecular target: T1, YsxC (Bacillus subtilis, UniProt P38424)
T1 construct: gene engB; full-length YsxC, 22 kDa, N-terminal His6 tag (pET15b-ysxC) cleaved by thrombin, expressed in E. coli BL21(DE3)
Assay: cryo-EM structure of the complex on the […].5S(YsxC) particle
Assay type: binding
Details: 2 mM GMPPNP, 15 mM MgCl2, 50 mM NH4Cl, pH 7.5, 37 °C; nucleotide site; non-hydrolyzable GTP analogue

T1 sequence (P38424 whole entry): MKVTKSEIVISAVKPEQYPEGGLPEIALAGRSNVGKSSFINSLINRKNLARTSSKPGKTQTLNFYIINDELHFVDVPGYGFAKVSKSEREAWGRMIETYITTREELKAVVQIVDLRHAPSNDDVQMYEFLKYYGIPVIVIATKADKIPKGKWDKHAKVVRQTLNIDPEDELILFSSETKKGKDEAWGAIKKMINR

Nc1nc2c(ncn2[C@@H]2O[C@H](COP(=O)(O)OP(=O)(O)NP(=O)(O)O)[C@@H](O)[C@H]2O)c(=O)[nH]1 [GMPPNP]
cryo-EM structure of the complex on the 44.5S(YsxC) particle: the density corresponding to the GMPPNP nucleotide (colored in blue), are indicated
